# In patent US8999967B2, “Tricyclic fused ring inhibitors of hepatitis C” (Presidio Pharmaceuticals, Inc., priority 2010, dated 2015):
# System: HCV 1b_Huh-Luc/Neo-ET cell line (genotype 1b replicon in Huh 7 cells)
# Assay: HCV replicon assay (luciferase readout)
# Assay type: cell-based
# Details: Hepatitis C virus, HCV 1b replicon in Huh 7 cells, 72 h incubation, EC50 range class, read-out: Inhibition of HCV genotype 1b
# Description: Biological activity of the compounds of the invention was determined using an HCV replicon assay. The HCV 1b_Huh-Luc/Neo-ET cell line persistently expressing a bicistronic genotype 1b replicon in Huh 7 cells was obtained from ReBLikon GMBH. This cell line was used to test compound inhibition using luciferase enzyme activity readout as a measurement of compound inhibition of replicon levels.
# On Day 1 (the day after plating cells), each compound is added in triplicate to the cells. Plates are incubated for 72 h prior to determining luciferase levels. Enzyme activity was measured using a Bright-Glo Kit (cat. number E2620) manufactured by Promega Corporation. The following equation was used to generate a percent control value for each compound. % Control=(Compound Luciferase Level/Control Luciferase Level)*100
# The EC50 value was determined using GraphPad Prism and the following equation: Y=Bottom asymptote+(Top asymptote-Bottom asymptote)/(1+10^((Log EC50−X)*HillSlope))
# EC50 values of compounds are determined several times in the replicon assay to generate average EC50 values. […]
row,Structure (SMILES),EC50
1,COC(=O)N[C@H](C(=O)N1CCC[C@H]1c1ncc(-c2ccc3c(c2)Cc2cc(Cl)c(-c4cnc([C@@H]5CCCN5C(=O)[C@@H](NC(=O)OC)C(C)C)[nH]4)cc2O3)[nH]1)C(C)C [Compound 61],< 1 nM
2,COC(=O)N[C@H](C(=O)N1CCC[C@H]1c1ncc(-c2ccc3c(c2)Cc2cc(Cl)c(-c4cnc([C@@H]5CCCN5C(=O)[C@@H](NC(=O)OC)[C@@H](C)OC)[nH]4)cc2O3)[nH]1)[C@@H](C)OC [Compound 62],< 1 nM
3,CC[C@H](C)[C@H](NC(=O)OC)C(=O)N1CCC[C@H]1c1ncc(-c2ccc3c(c2)Cc2cc(Cl)c(-c4cnc([C@@H]5CCCN5C(=O)[C@@H](NC(=O)OC)[C@@H](C)CC)[nH]4)cc2O3)[nH]1 [Compound 63],< 1 nM
4,COC(=O)N[C@H](C(=O)N1CCOC[C@H]1c1ncc(-c2ccc3c(c2)Oc2ccc(-c4cnc([C@@H]5COCCN5C(=O)[C@@H](NC(=O)OC)C(C)C)[nH]4)cc2O3)[nH]1)C(C)C [Compound 64],< 1 nM
5,COC(=O)N[C@@H](C(=O)N1CCOC[C@H]1c1ncc(-c2ccc3c(c2)Oc2ccc(-c4cnc([C@@H]5COCCN5C(=O)[C@H](NC(=O)OC)c5ccccc5)[nH]4)cc2O3)[nH]1)c1ccccc1 [Compound 65],< 1 nM
6,COC(=O)N[C@H](C(=O)N1CSC[C@H]1c1ncc(-c2ccc3c(c2)Oc2ccc(-c4cnc([C@@H]5CSCN5C(=O)[C@@H](NC(=O)OC)C5CCCC5)[nH]4)cc2O3)[nH]1)C1CCCC1 [Compound 66],< 1 nM
7,CC[C@H](C)[C@H](NC(=O)OC)C(=O)N1CSC[C@H]1c1ncc(-c2ccc3c(c2)Oc2ccc(-c4cnc([C@@H]5CSCN5C(=O)[C@@H](NC(=O)OC)[C@@H](C)CC)[nH]4)cc2O3)[nH]1 [Compound 67],< 1 nM
8,CC[C@H](C)[C@H](NC(=O)OC)C(=O)N1CCC[C@H]1c1ncc(-c2ccc3c(c2)Oc2ccc(-c4cnc([C@@H]5CCCN5C(=O)[C@@H](NC(=O)OC)[C@@H](C)CC)[nH]4)cc2C3(C)C)[nH]1 [Compound 70],< 1 nM
9,COC(=O)N[C@H](C(=O)N1CCC[C@H]1c1ncc(-c2ccc3c(c2)Oc2ccc(-c4cnc([C@@H]5CCCN5C(=O)[C@@H](NC(=O)OC)[C@@H](C)OC)[nH]4)cc2C3(C)C)[nH]1)[C@@H](C)OC [Compound 71],< 1 nM
10,COC(=O)N[C@H](C(=O)N1CCC[C@H]1c1ncc(-c2ccc3c(c2)Oc2ccc(-c4cnc([C@@H]5CCCN5C(=O)[C@@H](NC(=O)OC)C5CCOCC5)[nH]4)cc2C3(C)C)[nH]1)C1CCOCC1 [Compound 75],< 1 nM
11,CC[C@H](C)[C@H](NC(=O)OC)C(=O)N1CCC[C@H]1c1ncc(-c2ccc3c(c2)Oc2ccc(-c4cnc([C@@H]5CCCN5C(=O)[C@@H](NC(=O)OC)[C@@H](C)CC)[nH]4)cc2C32CC2)[nH]1 [Compound 79],< 1 nM
12,COC(=O)N[C@H](C(=O)N1CCC[C@H]1c1ncc(-c2ccc3c(=O)c4cc(-c5cnc([C@@H]6CSCN6C(=O)[C@@H](NC(=O)OC)[C@@H](C)OC)[nH]5)ccc4oc3c2)[nH]1)[C@@H](C)OC [Compound 120],< 1 nM
13,COC(=O)N[C@@H](C(=O)N1CCC[C@H]1c1ncc(-c2ccc3c(=O)c4cc(-c5cnc([C@@H]6CSCN6C(=O)[C@H](NC(=O)OC)c6ccccc6)[nH]5)ccc4oc3c2)[nH]1)c1ccccc1 [Compound 121],< 1 nM
14,COC(=O)N[C@H](C(=O)N1CCC[C@H]1c1ncc(-c2ccc3c(=O)c4cc(-c5cnc([C@@H]6CSCN6C(=O)[C@@H](NC(=O)OC)C(C)C)[nH]5)ccc4oc3c2)[nH]1)C(C)C [Compound 122],< 1 nM
15,CC[C@H](C)[C@H](NC(=O)OC)C(=O)N1CCC[C@H]1c1ncc(-c2ccc3c(=O)c4cc(-c5cnc([C@@H]6CSCN6C(=O)[C@@H](NC(=O)OC)[C@@H](C)CC)[nH]5)ccc4oc3c2)[nH]1 [Compound 123],< 1 nM
16,COC(=O)N[C@H](C(=O)N1CCC[C@H]1c1ncc(-c2ccc3c(c2)Oc2ccc(-c4cnc([C@@H]5CSCN5C(=O)[C@@H](NC(=O)OC)C(C)C)[nH]4)cc2C3)[nH]1)C(C)C [Compound 124],< 1 nM
17,CC[C@H](C)[C@H](NC(=O)OC)C(=O)N1CCC[C@H]1c1ncc(-c2ccc3c(c2)Oc2ccc(-c4cnc([C@@H]5CSCN5C(=O)[C@@H](NC(=O)OC)[C@@H](C)CC)[nH]4)cc2C3)[nH]1 [Compound 125],< 1 nM
18,COC(=O)N[C@H](C(=O)N1CCC[C@H]1c1ncc(-c2ccc3oc4cc(-c5cnc([C@@H]6CCCN6C(=O)[C@@H](NC(=O)OC)C(C)C)[nH]5)c(C)cc4c(=O)c3c2)[nH]1)C(C)C [Compound 126],< 1 nM
19,COC(=O)N[C@@H](C(=O)N1CCC[C@H]1c1ncc(-c2ccc3oc4cc(-c5cnc([C@@H]6CCCN6C(=O)[C@H](NC(=O)OC)c6ccccc6)[nH]5)c(C)cc4c(=O)c3c2)[nH]1)c1ccccc1 [Compound 127],< 1 nM
20,COC(=O)N[C@H](C(=O)N1CSC[C@H]1c1ncc(-c2ccc3c(=O)c4cc(-c5cnc([C@@H]6CSCN6C(=O)[C@@H](NC(=O)OC)C(C)C)[nH]5)ccc4oc3c2)[nH]1)C(C)C [Compound 128],< 1 nM
21,COC(=O)N[C@@H](C(=O)N1CSC[C@H]1c1ncc(-c2ccc3c(=O)c4cc(-c5cnc([C@@H]6CSCN6C(=O)[C@H](NC(=O)OC)c6ccccc6)[nH]5)ccc4oc3c2)[nH]1)c1ccccc1 [Compound 129],< 1 nM
22,CC[C@H](C)[C@H](NC(=O)OC)C(=O)N1CCC[C@H]1c1ncc(-c2ccc3c(=O)c4cc(-c5cnc([C@@H]6COCCN6C(=O)[C@@H](NC(=O)OC)[C@@H](C)CC)[nH]5)ccc4oc3c2)[nH]1 [Compound 130],< 1 nM
23,COC(=O)N[C@H](C(=O)N1CCC[C@H]1c1ncc(-c2ccc3c(=O)c4cc(-c5cnc([C@@H]6COCCN6C(=O)[C@@H](NC(=O)OC)[C@@H](C)OC)[nH]5)ccc4oc3c2)[nH]1)[C@@H](C)OC [Compound 131],< 1 nM
24,CC[C@H](C)[C@H](NC(=O)OC)C(=O)N1CCCC[C@H]1c1ncc(-c2ccc3oc4cc(-c5cnc([C@@H]6CCCN6C(=O)[C@@H](NC(=O)OC)[C@@H](C)CC)[nH]5)ccc4c(=O)c3c2)[nH]1 [Compound 132],< 1 nM
25,COC(=O)N[C@H](C(=O)N1CCC[C@H]1c1ncc(-c2ccc3c(c2)C(C)(C)c2ccc(-c4ccc5nc([C@@H]6CCCN6C(=O)[C@@H](NC(=O)OC)C(C)C)[nH]c5c4)cc2O3)[nH]1)C(C)C [Compound 133],< 1 nM
26,COC(=O)N[C@@H](C(=O)N1CCC[C@H]1c1ncc(-c2ccc3c(c2)C(C)(C)c2ccc(-c4ccc5nc([C@@H]6CCCN6C(=O)[C@H](NC(=O)OC)c6ccccc6)[nH]c5c4)cc2O3)[nH]1)c1ccccc1 [Compound 134],< 1 nM
27,COC(=O)N[C@H](C(=O)N1CCC[C@H]1c1nc2ccc(-c3ccc4c(=O)c5cc(-c6cnc([C@@H]7CCCN7C(=O)[C@@H](NC(=O)OC)[C@@H](C)OC)[nH]6)ccc5oc4c3)cc2[nH]1)C(C)C [Compound 135],< 1 nM
28,CC[C@H](C)[C@H](NC(=O)OC)C(=O)N1CCC[C@H]1c1ncc(-c2ccc3oc4cc(-c5ccc6nc([C@@H]7CCCN7C(=O)[C@@H](NC(=O)OC)C(C)C)[nH]c6c5)ccc4c(=O)c3c2)[nH]1 [Compound 136],< 1 nM
29,COC(=O)N[C@H](C(=O)N1CCC[C@H]1c1nc2ccc(-c3ccc4c(=O)c5cc(-c6cnc([C@@H]7CCCN7C(=O)[C@H](NC(=O)OC)c7ccccc7)[nH]6)ccc5oc4c3)cc2[nH]1)C(C)C [Compound 137],< 1 nM
